# System: transgenic Arabidopsis thaliana T1 plants
# Assay: Detection of the herbicide tolerance of the transgenic Arabidopsis thaliana plants
# Assay type: in vivo
# Conditions: for The grade of pesticide damage/plant: 0 / The grade of pesticide damage/plant: 1 / The grade of pesticide damage/plant: 2 / The grade of pesticide damage/plant: 3: 7 DAT
# Text: The transformed Arabidopsis thaliana T1 plants were initially selected using glufosinate herbicide. The Arabidopsis thaliana T1 plants (PPOA-01) into which the PPOA-01 nucleotide sequence was introduced, the Arabidopsis thaliana T1 plants (PPOB-01) into which the PPOB-01 nucleotide sequence was introduced, the Arabidopsis thaliana T1 plants (PPOC-01) into which the PPOC-01 nucleotide sequence was introduced, the Arabidopsis thaliana T1 plants (PPOD-01) into which the PPOD-01 nucleotide sequence was introduced, the Arabidopsis thaliana T1 plants (PPOE-01) into which the PPOE-01 nucleotide sequence was introduced, the Arabidopsis thaliana T1 plants (PPOF-01) into which the PPOF-01 nucleotide sequence was introduced, the Arabidopsis thaliana T1 plants (PPO-AP-01) into which the PPO-AP-01 nucleotide sequence was introduced, and the Arabidopsis thaliana T1 plants (control vector) into which the control vector was introduced, the wild-type Arabidopsis thaliana plants (CK) (with 24 plants being included in each genotype) (18 days after sowing) were sprayed with saflufenacil at three concentrations (25 g ai/ha (one-fold field concentration, 1×), 100 g ai/ha (four-fold field concentration, 4×), and 0 g ai/ha (water, 0×)), oxyfluorfen at three concentrations (180 g ai/ha (one-fold field concentration, 1×), 720 g ai/ha (four-fold field concentration, 4×), and 0 g ai/ha (water, 0×)), and flumioxazin at three concentrations (60 g ai/ha (one-fold field concentration, 1×), 240 g ai/ha (four-fold field concentration, 4×), and 0 g ai/ha (water, 0×) to determine the tolerance of Arabidopsis thaliana to the herbicides. After 7 days of spraying (7 DAT), the damage level of each plant caused by the herbicide was evaluated according to the average of the damage levels (%) of plants (the average of the damage levels (%) of plants=the injured leaf area/the total leaf area×100%), i.e., the grade of pesticide damage: grade 0 means that the growth status of plants is essentially consistent with those sprayed with the blank solvent (water); grade 1 means that the average of the damage levels of plants is less than 10%; grade 2 means that the average of the damage levels of plants is greater than 10%; and grade 3 means that the average of the damage levels of plants is 100%. The plants having a growth status falling within grades 0 and 1 are classified as highly resistant plants; those having a growth status falling within grade 2 are classified as poorly resistant plants; and those having a growth status falling within grade 3 are classified as non-resistant plants.
# [1] = genotype Control vector, 60 g ai/ha
# [2] = genotype Control vector, 240 g ai/ha
# [3] = genotype PPO-AP-01, 240 g ai/ha
smiles,measurement,setting,value
"C#CCN1C(=O)COc2cc(F)c(N3C(=O)C4=C(CCCC4)C3=O)cc21 [flumioxazin, 2-[7-fluoro-3,4-dihydro-3-oxo-4-(2-propynyl)-2H-1,4-benzoxazin-6-yl]-4,5,6,7-tetrahydro-1H-isoindole-1,3(2H)-dione]",effective dose distinguishing sensitive plants from plants having an average level of resistance,Arabidopsis thaliana,60 g ai/ha
same,The grade of pesticide damage/plant: 0,"genotype CK, 60 g ai/ha",0 plant
same,The grade of pesticide damage/plant: 1,"genotype CK, 60 g ai/ha",0 plant
same,The grade of pesticide damage/plant: 2,"genotype CK, 60 g ai/ha",0 plant
same,The grade of pesticide damage/plant: 3,"genotype CK, 60 g ai/ha",24 plant
same,The grade of pesticide damage/plant: 0,"genotype CK, 240 g ai/ha",0 plant
same,The grade of pesticide damage/plant: 1,"genotype CK, 240 g ai/ha",0 plant
same,The grade of pesticide damage/plant: 2,"genotype CK, 240 g ai/ha",0 plant
same,The grade of pesticide damage/plant: 3,"genotype CK, 240 g ai/ha",24 plant
same,The grade of pesticide damage/plant: 0,[1],0 plant
same,The grade of pesticide damage/plant: 1,[1],0 plant
same,The grade of pesticide damage/plant: 2,[1],0 plant
same,The grade of pesticide damage/plant: 3,[1],24 plant
same,The grade of pesticide damage/plant: 0,[2],0 plant
same,The grade of pesticide damage/plant: 1,[2],0 plant
same,The grade of pesticide damage/plant: 2,[2],0 plant
same,The grade of pesticide damage/plant: 3,[2],24 plant
same,The grade of pesticide damage/plant: 0,"genotype PPO-AP-01, 60 g ai/ha",0 plant
same,The grade of pesticide damage/plant: 1,"genotype PPO-AP-01, 60 g ai/ha",0 plant
same,The grade of pesticide damage/plant: 2,"genotype PPO-AP-01, 60 g ai/ha",0 plant
same,The grade of pesticide damage/plant: 3,"genotype PPO-AP-01, 60 g ai/ha",24 plant
same,The grade of pesticide damage/plant: 0,[3],0 plant
same,The grade of pesticide damage/plant: 1,[3],0 plant
same,The grade of pesticide damage/plant: 2,[3],0 plant
same,The grade of pesticide damage/plant: 3,[3],24 plant
same,tolerance to the herbicide (in words),"genotype PPO-AP-01, four-fold field concentration",no tolerance
same,tolerance to the herbicide (in words),"genotype PPO-AP-01, one-fold field concentration",no tolerance
same,The grade of pesticide damage/plant: 0,"genotype PPOA-01, 60 g ai/ha",24 plant
same,The grade of pesticide damage/plant: 1,"genotype PPOA-01, 60 g ai/ha",0 plant
same,The grade of pesticide damage/plant: 2,"genotype PPOA-01, 60 g ai/ha",0 plant
same,The grade of pesticide damage/plant: 3,"genotype PPOA-01, 60 g ai/ha",0 plant
same,The grade of pesticide damage/plant: 0,"genotype PPOA-01, 240 g ai/ha",18 plant
same,The grade of pesticide damage/plant: 1,"genotype PPOA-01, 240 g ai/ha",6 plant
same,The grade of pesticide damage/plant: 2,"genotype PPOA-01, 240 g ai/ha",0 plant
same,The grade of pesticide damage/plant: 3,"genotype PPOA-01, 240 g ai/ha",0 plant
same,The grade of pesticide damage/plant: 0,"genotype PPOB-01, 60 g ai/ha",24 plant
same,The grade of pesticide damage/plant: 1,"genotype PPOB-01, 60 g ai/ha",0 plant
same,The grade of pesticide damage/plant: 2,"genotype PPOB-01, 60 g ai/ha",0 plant
same,The grade of pesticide damage/plant: 3,"genotype PPOB-01, 60 g ai/ha",0 plant
same,The grade of pesticide damage/plant: 0,"genotype PPOB-01, 240 g ai/ha",18 plant
same,The grade of pesticide damage/plant: 1,"genotype PPOB-01, 240 g ai/ha",6 plant
same,The grade of pesticide damage/plant: 2,"genotype PPOB-01, 240 g ai/ha",0 plant
same,The grade of pesticide damage/plant: 3,"genotype PPOB-01, 240 g ai/ha",0 plant
same,The grade of pesticide damage/plant: 0,"genotype PPOC-01, 60 g ai/ha",24 plant
same,The grade of pesticide damage/plant: 1,"genotype PPOC-01, 60 g ai/ha",0 plant
same,The grade of pesticide damage/plant: 2,"genotype PPOC-01, 60 g ai/ha",0 plant
same,The grade of pesticide damage/plant: 3,"genotype PPOC-01, 60 g ai/ha",0 plant
same,The grade of pesticide damage/plant: 0,"genotype PPOC-01, 240 g ai/ha",24 plant
same,The grade of pesticide damage/plant: 1,"genotype PPOC-01, 240 g ai/ha",0 plant
same,The grade of pesticide damage/plant: 2,"genotype PPOC-01, 240 g ai/ha",0 plant
same,The grade of pesticide damage/plant: 3,"genotype PPOC-01, 240 g ai/ha",0 plant
same,The grade of pesticide damage/plant: 0,"genotype PPOD-01, 60 g ai/ha",24 plant
same,The grade of pesticide damage/plant: 1,"genotype PPOD-01, 60 g ai/ha",0 plant
same,The grade of pesticide damage/plant: 2,"genotype PPOD-01, 60 g ai/ha",0 plant
same,The grade of pesticide damage/plant: 3,"genotype PPOD-01, 60 g ai/ha",0 plant
same,The grade of pesticide damage/plant: 0,"genotype PPOD-01, 240 g ai/ha",24 plant
same,The grade of pesticide damage/plant: 1,"genotype PPOD-01, 240 g ai/ha",0 plant
same,The grade of pesticide damage/plant: 2,"genotype PPOD-01, 240 g ai/ha",0 plant
same,The grade of pesticide damage/plant: 3,"genotype PPOD-01, 240 g ai/ha",0 plant
same,The grade of pesticide damage/plant: 0,"genotype PPOE-01, 60 g ai/ha",22 plant
same,The grade of pesticide damage/plant: 1,"genotype PPOE-01, 60 g ai/ha",2 plant
same,The grade of pesticide damage/plant: 2,"genotype PPOE-01, 60 g ai/ha",0 plant
same,The grade of pesticide damage/plant: 3,"genotype PPOE-01, 60 g ai/ha",0 plant
same,The grade of pesticide damage/plant: 0,"genotype PPOE-01, 240 g ai/ha",23 plant
same,The grade of pesticide damage/plant: 1,"genotype PPOE-01, 240 g ai/ha",0 plant
same,The grade of pesticide damage/plant: 2,"genotype PPOE-01, 240 g ai/ha",0 plant
same,The grade of pesticide damage/plant: 3,"genotype PPOE-01, 240 g ai/ha",1 plant
same,number of non-resistant plants,"genotype PPOE-01, four-fold field concentration",1 plant
same,tolerance to the herbicide (in words),"genotype PPOE-01, the other plants, four-fold field concentration",high-resistant tolerance
same,The grade of pesticide damage/plant: 0,"genotype PPOF-01, 60 g ai/ha",24 plant
same,The grade of pesticide damage/plant: 1,"genotype PPOF-01, 60 g ai/ha",0 plant
same,The grade of pesticide damage/plant: 2,"genotype PPOF-01, 60 g ai/ha",0 plant
same,The grade of pesticide damage/plant: 3,"genotype PPOF-01, 60 g ai/ha",0 plant
same,The grade of pesticide damage/plant: 0,"genotype PPOF-01, 240 g ai/ha",18 plant
same,The grade of pesticide damage/plant: 1,"genotype PPOF-01, 240 g ai/ha",6 plant
same,The grade of pesticide damage/plant: 2,"genotype PPOF-01, 240 g ai/ha",0 plant
same,The grade of pesticide damage/plant: 3,"genotype PPOF-01, 240 g ai/ha",0 plant
same,tolerance to the herbicide (in words),"genotypes PPOA-01 to PPOD-01 and PPOF-01, four-fold field concentration",high-resistant tolerance
same,tolerance to the herbicide (in words),"genotypes PPOA-01 to PPOF-01, one-fold field concentration",high-resistant tolerance

# Source: patent US20250275540A1, “USE OF PROTOPORPHYRINOGEN OXIDASE” (BEIJING DABEINONG BIOTECHNOLOGY CO., LTD., priority 2022, published 2025)
